Source: PMC6938011, “Antiplasmodial profile of selected compounds from Malaria Box: in vitro evaluation, speed of action and drug combination studies” (Malaria Journal, 2019)
“Also recorded” adds a separate entry of the source. Where two headings read alike, the source gives them in different places.

Experiments:
P. falciparum 3D7 strain [1] = test system: P. falciparum 3D7 strain; set-up: method as in PMID 23798988; settings: reported potency of Malaria Box compounds ref 13, read-out: Reported IC50^Pf; cited from earlier work
[2] = test system: Hepatocarcinoma cells (HepG2); test: Cytotoxicity evaluation, neutral red assay; format: cell-based, human; settings: HepG2, 72 h, read-out: IC50^HepG2, NR Average (confidence interval-95%)
Method: (§1) Hepatocarcinoma cells (HepG2) were cultivated in RPMI medium supplemented with 10% (v/v) fetal bovine serum and 0.2% (v/v) penicillin/streptomycin. The antibiotics were added to the medium to eliminate the potential interference of microbial contamination. Cells were cultivated at 37 °C and 5% CO2; the supplemented medium was changed every 2 days.
(§2) For the experimental procedures, cells were trypsinized and transferred to a 96-well plate at 30,000 cells per well and incubated at 37 °C overnight for cell adhesion. Then, serial dilutions of the inhibitor candidates were added to the plate. Cells without any compounds were used as positive growth controls. The plate was incubated at 37 °C and 5% CO2 for 72 h. After incubation, the highest compound concentration to be considered (highest concentration without precipitation) was observed by microscopy. Cytotoxicity was evaluated by two different methods. The first is a colorimetric assay based on metabolic cell activity in the presence of 3-(4,5-dimethylthiazol-2-yl)-2,5-diphenyltetrazolium bromide (MTT). Briefly, mitochondrial enzymes can convert the MTT dye into the purple insoluble compound formazan. To each well, 20 µL MTT at 5 mg/mL was added, followed by incubation at 37 °C for 3 to 5 h. After incubation, the supernatant was removed, and formazan crystals were solubilized in 100 µL DMSO. The absorbance, which is proportional to the number of viable cells, was determined using a SpectraMAX Plus 384 plate reader (Molecular Devices Corp., Sunnyvale, CA) (λ = 570 nm). The second method is based on the uptake of neutral red, a dye that is retained inside the lysosomes of viable cells. To each well, after removal of culture media, 200 µL neutral red medium 40 µg/mL was added, followed by incubation at 37 °C for 3 to 5 h. After incubation, supernatant was dispensed, and 200 µL 0.5% (v/v) formaldehyde in 1% (m/v) CaCl2 was added to remove excess of the dye for 5 min. Supernatant was dispensed, and 100 µL alcohol-acid solution (50% (v/v) ethanol, 1% (v/v) glacial acetic acid) was added, and the plate was stirred until a homogeneous solution was formed. The absorbance was determined using a SpectraMAX Plus 384 plate reader (Molecular Devices Corp., Sunnyvale, CA) (λ = 540 nm). For both methods, the half maximal inhibitory concentration (IC50^HepG2) was determined by non-linear regression analysis of the resulting concentration-response curve using the software Origin 2016 (OriginLab Corporation).

P. falciparum [3] = test: Combination assays, isobologram analysis (FIC50 pairs); format: cell-based, Plasmodium falciparum; settings: for Isobologram data, Additive: fraction of FIC50 pairs / Isobologram data, Additive: number of FIC50 pairs / Isobologram data, Antagonistic: fraction of FIC50 pairs / Isobologram data, Antagonistic: number of FIC50 pairs / Isobologram data, Synergic: number of FIC50 pairs: combination with artesunate; for Combination profile with artesunate: isobologram, IC50 equivalent ratios 1:4, 2:3, 1:1, 3:2, 4:1
Method: Combinations of anti-malarial candidates with artesunate, an artemisinin derivative, were tested in fixed molar ratios based on the individual IC50 values that were previously determined by the SYBR Green I assay. Traditionally, a line (isobole) of additivity is used to distinguish between additive, synergic, and antagonistic interaction profiles. […] Thus, a systematic consideration of additivity ranges was included in the isobologram analysis, as previously described by Grabovsky and Tallarida. Concentration-response curves of individual compounds were used in the calculation of each pair’s additivity range (area within the upper and lower limits in Figs. 4 and 5). Fractional inhibitory concentration (FIC50) pairs plotted as points inside the additivity range indicate the expected sum of each compound effect, while points above and below the range indicate antagonistic and synergic interactions, respectively. The selected inhibitors were combined with artesunate in the IC50 equivalent ratios of 1:4, 2:3, 1:1, 3:2 and 4:1 for the construction of the isobolograms.

P. berghei NK65 strain = test: In vivo suppressive parasite growth test against Plasmodium berghei; set-up: species or system Swiss outbred mice; settings: 50 mg/kg oral gavage daily for 3 days, P. berghei-infected mice
Method: A suppressive parasite growth test was performed in mice infected with P. berghei NK65 strain (originally received from the New York University Medical School), as described previously, with some modifications. Briefly, adult Swiss outbred mice (20 ± 2 g weight) were intraperitoneally inoculated with 1 × 10^5 red blood cells infected with P. berghei. The infected mice were maintained together for at least 2 h and then randomized into groups of 5 animals per cage, which were subsequently administered 50 mg/kg of each compound diluted in 3% (v/v) DMSO by oral gavage daily for 3 days. Two control groups were used in parallel: one was treated with CQ (20 mg/kg) and the other was treated with the vehicle. Blood smears from mouse tails were prepared on days 5 and 7 post-infection and then fixed with methanol, stained with Giemsa 10% (v/v), and examined under the microscope.

[4] = set-up: method as in PMID 27467575; settings: previous pharmacokinetics studies ref 30; cited from earlier work
[5] = test system: Hepatocarcinoma cells (HepG2); test: Cytotoxicity evaluation, MTT assay; format: cell-based, human; settings: HepG2, 72 h, read-out: IC50^HepG2, MTT Average (confidence interval-95%)
Method: as §1, §2

P. falciparum 3D7 strain [6] = test: SYBR Green I inhibition assay for the asexual stages of P. falciparum; format: cell-based, Plasmodium falciparum; settings: 72 h, read-out: IC50^Pf Average (confidence interval-95%)
Method: The P. falciparum 3D7 strain was kept in culture in a humidified incubator at 37 °C in RPMI-1640 medium with 25 mM NaHCO3, 25 mM HEPES (pH 7.4), 11 mM D-glucose, 3.67 mM hypoxanthine and 25 µg/mL gentamicin, supplemented with 0.5% (m/v) AlbuMAX II. The culture medium was changed daily, and the parasitaemia was maintained below 10% with 2.5% haematocrit in human erythrocytes.
The parasites were synchronized through sterile 5% (m/v) D-sorbitol treatment over 10 min at 37 °C for the enrichment of ring-stage parasites. The cultures were pelleted by centrifugation at 600×g over 5 min. The parasitaemia was determined by microscope analysis of thin blood smears stained with Giemsa 10% (v/v) after methanol fixation. The initial parasitaemia was calculated from 1000 red blood cells (RBCs), and cultures were diluted to 0.5% parasitaemia and 2% haematocrit by adding the appropriate volumes of erythrocytes and medium. Parasite aliquots of 180 µL were distributed into 96-well plates previously prepared with 20 µL aliquots of a tenfold concentrated compound. Negative and positive control wells corresponding to non-parasitized erythrocytes and parasite cultures in the absence of compounds were set in parallel. The DMSO concentration was maintained below 0.05% (v/v). The plates were incubated for 72 h at 37 °C in a humidified incubator with a gas mixture of 90% N2, 5% O2 and 5% CO2. After incubation, the culture medium was removed, and the cells were resuspended in 100 µL PBS buffer (116 mM NaCl, 10 mM Na2HPO4, 3 mM KH2PO4) and lysed with 100 µL lysis buffer (20 mM Tris base, 5 mM EDTA, 0.0008% (v/v) Triton X-100, 0.008% (m/v) saponin, pH 8.0) containing 0.002% (v/v) SYBR Green I. Plates were incubated at room temperature for 30 min, and the fluorescence corresponding to the parasitic density was determined using a SpectraMAX Gemini EM plate reader (Molecular Devices Corp., Sunnyvale, CA) (excitation at 485 nm, emission at 535 nm). The half maximal inhibitory concentration (IC50^Pf) was determined by non-linear regression analysis of the resulting concentration-response curve using the software Origin 2016 (OriginLab Corporation).

[7] = test system: asexual intraerythrocytic stages of P. falciparum; test: Speed of action studies (microscopy of thin blood smears); format: cell-based, Plasmodium falciparum; settings: ring-stage parasites; for Parasite morphology during incubation: compound at tenfold the IC50, microscopy up to 36 h; for Speed of action: compound at tenfold the IC50, observed 0-36 h
Method: Parasites in thin blood smears were observed by microscopy after 0, 8, 16, 24 and 36 h of incubation.

[8] = set-up: method as in PMID 27467575; settings: previous pharmacokinetics studies ref 30; cited from earlier work; remark: listed apart in the source
P. falciparum [9] = test: Combination assays, isobologram analysis (FIC50 pairs); format: cell-based, Plasmodium falciparum
bc1 complex = test system: bc1 complex; set-up: method as in PMID 27467575; settings: mitochondrial electron transport chain ref 30; cited from earlier work
[10] = Solubility in the cytotoxicity assay conditions; format: physicochemical; settings: HepG2 cytotoxicity assay conditions
Method: For the experimental procedures, cells were trypsinized and transferred to a 96-well plate at 30,000 cells per well and incubated at 37 °C overnight for cell adhesion. Then, serial dilutions of the inhibitor candidates were added to the plate. Cells without any compounds were used as positive growth controls. The plate was incubated at 37 °C and 5% CO2 for 72 h. After incubation, the highest compound concentration to be considered (highest concentration without precipitation) was observed by microscopy. Cytotoxicity was evaluated by two different methods. The first is a colorimetric assay based on metabolic cell activity in the presence of 3-(4,5-dimethylthiazol-2-yl)-2,5-diphenyltetrazolium bromide (MTT). Briefly, mitochondrial enzymes can convert the MTT dye into the purple insoluble compound formazan. […] The absorbance, which is proportional to the number of viable cells, was determined using a SpectraMAX Plus 384 plate reader (Molecular Devices Corp., Sunnyvale, CA) (λ = 570 nm). […] The absorbance was determined using a SpectraMAX Plus 384 plate reader (Molecular Devices Corp., Sunnyvale, CA) (λ = 540 nm). For both methods, the half maximal inhibitory concentration (IC50^HepG2) was determined by non-linear regression analysis of the resulting concentration-response curve using the software Origin 2016 (OriginLab Corporation).

IC50 (P. falciparum 3D7 strain [6]) [µM]	SMILES	IC50 (P. falciparum 3D7 strain [1]) [µM]	IC50 [2] [µM]	Isobologram data, Additive: fraction of FIC50 pairs (P. falciparum [3]) [%]	Isobologram data, Additive: number of FIC50 pairs (P. falciparum [3])	Isobologram data, Antagonistic: fraction of FIC50 pairs (P. falciparum [3]) [%]	Isobologram data, Antagonistic: number of FIC50 pairs (P. falciparum [3])	Isobologram data, Synergic: number of FIC50 pairs (P. falciparum [3])	Combination profile with artesunate (P. falciparum [3])	IC50 [5] [µM]	Parasite morphology during incubation [7]	Speed of action [7]	other results
0.4	CCOC(=O)C1=C(C)N=c2sc(=Cc3cc(Cl)ccc3O)c(=O)n2C1c1ccc(OC)cc1 (stereo not drawn) [Compound 2]	0.489	22	92	12	8	1	0	additive profile	22	pyknotic nuclei formation	Fast	Combination profile with artesunate (P. falciparum [3]; listed as 02): Additivity; % of reduction of parasitaemia, day 5 after infection (P. berghei NK65 strain): 64%; % of reduction of parasitaemia, day 7 after infection (P. berghei NK65 strain): 33%; Oral bioavailability [4]: poor; Plasma protein binding [8]: > 99%
1.2	O=C1c2ccccc2-c2nnc(-c3ccc(Br)cc3)cc21 [Compound 6]	1.07	> 12.5	15	2	85	11	0		> 12.5	young trophozoites were observed after 36 h	slow-acting and Slow	Combination profile with artesunate (P. falciparum [3]; listed as 06): Antagonism; Combination profile with proguanil (P. falciparum [9]): highly synergic; Molecular target (bc1 complex): inhibitor of the mitochondrial electron transport chain targeting the bc1 complex
0.85	Cc1cc(NC(=O)c2ccc(-c3ccccc3)cc2)no1 [Compound 10]	0.693		38	5	62	8	0	antagonistic; also recorded: Antagonism		punctual shapes after 16 h	Fast	Solubility in the assay conditions [10]: low solubility
